Reference: article PMC11079024, “Identification of a family of species-selective complex I inhibitors as potential anthelmintics” (Nature Communications, 2024)
Values joined by “and” are separate entries in the source; they are usually repeats but may differ in a detail not shown here. Equal entries are not always repeated. Where two headings read alike, the source gives them in different places.

Experiments:
C. briggsae complex I = C. briggsae complex I (Caenorhabditis briggsae, UniProt A8X476+A8XFG2+Q8HEC4); test: In vitro complex I activity assay, C. briggsae mitochondria; assay type: biochemical
Procedure: Mitochondria were isolated from the following free-living nematode strains: C. elegans—N2, CB3474, ECA882, ECA917, ECA1075, ECA1080; C. briggsae—AF16; P. pacificus—PS312; and P. hermaphrodita—B178. With the exception of the P. hermaphrodita strain B178, adult worms of each strain were grown in bulk through liquid culture to obtain mitochondria in sufficient quantities. Due to poor growth in liquid media, mixed stage populations of P. hermaphrodita were washed off and collected from NGM plates seeded with OP50. The isolation of mitochondria from all free-living nematode strains followed the protocol previously outlined in Burns et al.[24]. In brief, a 1 L saturated culture of E. coli HB101 was concentrated 20-fold in 50 mL complete S-medium. ~500,000 L1 worms synchronized from an embryo preparation performed the day prior were added to the S-media/HB101 suspension and grown to adulthood over the course of 3.5 days at 20 °C with shaking at 165 rpm. Following growth, worms were collected in 10 ×15 mL conical tubes and washed 7 times in M9 buffer. Worm suspensions were then combined into a single 15 mL conical tube and diluted to a final volume of 15 mL with M9 buffer. 1 mL aliquots of worm suspension were then distributed to 15 × 1.5 mL screw-cap microcentrifuge tubes and were pelleted at 500 g for 1 min. Excess M9 was aspirated without disturbing the worm pellet. 600 μL ice-cold isolate buffer A (250 mM sucrose, 10 mM Tris (pH 7.5), 1 mM EDTA, 1 mM PMSF (freshly prepared)) and 300 μL cold glass beads were then added to each tube. Tubes were incubated on ice for 10 min, and the worms were then lysed by bead beating (6 x 30 s, with 1 min cooling intervals). Tubes containing worm lysate were centrifuged at 1,000 g for 10 min at 4 °C and the supernatant was transferred to 15 new microcentrifuge tubes on ice. The tubes were centrifuged a second time at 1,000 g for 10 min at 4 °C and the supernatant was once again transferred to 15 new microcentrifuge tubes on ice. These tubes were then centrifuged at 16,000 g for 10 min at 4 °C. The resulting mitochondrial pellet was washed twice by re-suspension in 300 μL of ice-cold isolate buffer B (250 mM sucrose, 10 mM Tris (pH 7.5), 1 mM EDTA). Following the final wash, isolation buffer was aspirated from each tube and the pellets were flash-frozen in ethanol/dry ice and stored at −80 °C until needed.
The enzymatic activities of individual ETC complexes (I-IV) were assessed spectrophotometrically in isolated mitochondria using a Varioskan LUX Multimode plate reader (ThermoFisher Scientific). Mitochondrial pellets previously isolated were thawed on ice and resuspended in ice-cold isolation buffer (250 mM sucrose, 10 mM Tris (pH 7.5), 1 mM EDTA). The BCA assay (Walker, 1994) was used to quantify the protein concentration of mitochondria suspensions; solutions were diluted to a concentration of 0.2 mg/mL for use in all assays. For the complex I assay, mitochondria pellets were freeze-thawed on ice three times to increase enzyme accessibility. […] 20 μL mitochondria suspension was then added/mixed with a pipette to initiate the reaction. Immediately following the addition of mitochondria, absorbance was measured (complex I and II: 600 nm; complex III and IV: 550 nm) in 30 s intervals over 15 min. Enzymatic activity was determined in each reaction by plotting absorbance versus time and calculating the slope of the curve during the initial linear phase of the reaction. […] Percent activity of each complex was calculated by dividing the enzyme-specific activity of each well by the enzyme-specific activity of the corresponding solvent controls.
Chemical solutions were prepared in complex I assay buffer composed of 25 mM KPi buffer (pH 7.5), 3 mg/mL bovine serum albumin (BSA), 80 μM NADH, 60 μM decylubiquinone, 160 μM DCIP, 2 μM antimycin A and 2 mM KCN.
For preliminary screens of hit compounds, compounds were screened at 100 μM; data are the average of at least three biological replicates.

H. polygyrus = test: In vivo efficacy study in H. polygyrus mouse model; design: species or system NMRI mice infected with H. polygyrus
Procedure: For in vivo testing, female 3-week old NMRI mice were purchased from Charles River, Germany. The mice were kept in individually ventilated cages (IVC) under environmentally controlled conditions (temperature: 22 °C ± 2 °C; relative humidity: 55% ± 15%; artificial lighting with a circadian cycle of 12 h of light) and had free access to water (municipal tap water supply) and rodent food. Rodents were allowed to acclimatize to the new environment for 1 week before infection. Upon 2 days of arrival, dexamethasone (0.25 mg/L) (Sigma-Aldrich, Switzerland) was added to the normal drinking water for immunosuppression to enable parasite establishment. After 1 week, mice were orally infected with 100 H. polygyrus third larval stage (L3) in 150 µL water.
Four benzimidazole derivatives were tested for in vivo efficacy. The administration of dexamethasone was stopped after 12 days post-infection and 2 days later, the selected four benzimidazole derivatives were administered by oral gavage at a single dose of 200 mg/kg to groups of each four mice. Four mice were left untreated and served as a control group. The derivatives were prepared as a Tween80 (Sigma-Aldrich, Switzerland)/ethanol (Merck, Germany) mixture dissolved in tap water (7:3:90, v/v). After 6–7 days post-dosing, the mice were euthanized with CO2 and dissected. Adult worms were removed from the intestine and counted. The worm burden reduction was calculated by comparing the number of worms found in the control animals versus the treated animals.

[1] = C. briggsae mitochondria, Mean of replicates, read-out: in vitro complex I activity relative to solvent control
[2] = C. briggsae mitochondria, single replicate, read-out: in vitro complex I activity relative to solvent control
[3] = C. briggsae mitochondria, Mean, read-out: in vitro complex I activity relative to solvent control

C. briggsae complex I, sequence (A8X476 31-482): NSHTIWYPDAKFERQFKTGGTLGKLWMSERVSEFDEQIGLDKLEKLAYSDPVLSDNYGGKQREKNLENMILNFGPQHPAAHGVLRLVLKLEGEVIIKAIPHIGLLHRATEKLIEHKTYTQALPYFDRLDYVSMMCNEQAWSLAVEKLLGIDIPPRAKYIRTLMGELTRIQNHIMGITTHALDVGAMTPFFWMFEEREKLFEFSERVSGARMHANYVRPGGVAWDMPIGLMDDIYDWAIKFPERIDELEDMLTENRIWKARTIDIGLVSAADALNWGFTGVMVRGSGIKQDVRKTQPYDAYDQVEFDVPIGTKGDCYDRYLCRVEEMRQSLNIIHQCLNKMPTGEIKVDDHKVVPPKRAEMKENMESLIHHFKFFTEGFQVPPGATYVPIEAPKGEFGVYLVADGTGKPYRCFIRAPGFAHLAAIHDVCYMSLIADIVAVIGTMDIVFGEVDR
C. briggsae complex I, sequence (A8XFG2 17-199): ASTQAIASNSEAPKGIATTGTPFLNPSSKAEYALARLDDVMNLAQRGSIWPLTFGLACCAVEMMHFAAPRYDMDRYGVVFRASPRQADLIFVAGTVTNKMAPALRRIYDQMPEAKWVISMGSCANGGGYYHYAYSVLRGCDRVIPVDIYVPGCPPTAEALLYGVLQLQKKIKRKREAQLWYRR
C. briggsae complex I, sequence (Q8HEC4 whole entry): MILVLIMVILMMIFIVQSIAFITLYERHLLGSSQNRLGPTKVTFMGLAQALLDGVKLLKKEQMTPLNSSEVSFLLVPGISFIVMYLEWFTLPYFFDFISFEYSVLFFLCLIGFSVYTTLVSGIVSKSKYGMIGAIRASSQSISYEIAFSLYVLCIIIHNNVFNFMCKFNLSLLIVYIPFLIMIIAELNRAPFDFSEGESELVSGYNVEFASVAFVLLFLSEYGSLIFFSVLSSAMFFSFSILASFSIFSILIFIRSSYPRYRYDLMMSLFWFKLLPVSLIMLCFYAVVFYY

## CC(C)Cc1ccc(C(C)c2nc3ccccc3n2C)cc1 (stereo not shown) [NPD8790]
C. briggsae complex I; [1]
  remaining activity at 0.06 µM: 103%
  remaining activity at 0.13 µM: 92%
  remaining activity at 0.313 µM: 85.6%
  remaining activity at 0.625 µM: 74.2%
  remaining activity at 1.5 µM: 61.1%
  remaining activity at 3 µM: 43.1%
  remaining activity at 15 µM: 16%
  remaining activity at 37.5 µM: 11.7%
  remaining activity at 75 µM: 9.21%
C. briggsae complex I; [2]
  remaining activity at 0.06 µM: 95.7%
  remaining activity at 0.13 µM: 86.2%
  remaining activity at 0.313 µM: 76.1%
  remaining activity at 0.625 µM: 81.9%
  remaining activity at 1.5 µM: 70%
  remaining activity at 3 µM: 52.6%
  remaining activity at 0.0001 µM: 87.3%
  remaining activity at 0.0005 µM: 99.9%
  remaining activity at 0.001 µM: 99.6%
  remaining activity at 0.0025 µM: 108%
  remaining activity at 0.063 µM: 95.7%
  remaining activity at 0.125 µM: 86.2%
C. briggsae complex I; [3]
  remaining activity at 0.0001 µM: 91.5%
  remaining activity at 0.0005 µM: 96.4%
  remaining activity at 0.001 µM: 102%
  remaining activity at 0.0025 µM: 115%
  remaining activity at 0.063 µM: 103%
  remaining activity at 0.125 µM: 92%
  remaining activity at 0.313 µM: 85.6%
  remaining activity at 0.625 µM: 74.2%
  remaining activity at 1.5 µM: 61.1%
  remaining activity at 3 µM: 43.1%
  remaining activity at 15 µM: 16%
  remaining activity at 37.5 µM: 11.7%
  remaining activity at 75 µM: 9.21%
C. briggsae complex I; C. briggsae mitochondria, 0.005 µM, Mean, read-out: in vitro complex I activity relative to solvent control
  remaining activity at 0.005 µM: 119%
C. briggsae complex I; C. briggsae mitochondria, 0.025 µM, Mean, read-out: in vitro complex I activity relative to solvent control
  remaining activity at 0.025 µM: 109%
C. briggsae complex I; purified mitochondria
  IC50: 1600 nM
H. polygyrus; single oral dose 200 mg/kg, assessed 1 week after dosing
  # Mice cured/ # Mice investigated: 0/4
H. polygyrus; single oral dose 200 mg/kg, vs untreated control mice
  % Worm burden reduction: 23.0%
H. polygyrus; single oral dose 200 mg/kg, median (MAD) of adults collected from intestine
  Median # of living H. polygyrus worms: 95.5 (4.0)
H. polygyrus; single oral dose of 200 mg/kg, median worm counts versus control mice
  % Worm burden reduction: 22.9839%
H. polygyrus; single oral dose of 200 mg/kg, worm burden one week after dose, Mouse 1-4, 200 mg/kg
  Live worms in intestine (individual mouse): 93 and 52 and 101 and 98
H. polygyrus; single oral dose of 200 mg/kg, worm burden one week after dose, three to four mice
  Live worms in intestine, Median (+/- MAD): 95.5 (4.0)
